Earlier results in patent publication US20230390267A1, “TREATMENT REGIMENS FOR EARLY IDIOPATHIC PARKINSON'S DISEASE” (BIAL - PORTELA & CA., S.A., priority 2020, published 2023).
Like-named read-outs stand apart in the source and are kept apart here.

Legend:
[1] = system: patients suffering from early idiopathic Parkinson's disease; details: addition of entacapone to levodopa/DDCI in early PD; cited from earlier work
[2] = cited from earlier work
[3] = system: 'stable' PD patients; details: 6 months, cited from earlier work
[4] = tolcapone 100 mg three times daily
[5] = tolcapone 200 mg three times daily

For `CCN(CC)C(=O)/C(C#N)=C/c1cc(O)c(O)c([N+](=O)[O-])c1` [entacapone], the “onset of motor complications and frequency of dyskinesia” value [1] is given as “shorter time to onset of motor complications and increased frequency of dyskinesia”.

For `N[C@@H](Cc1ccc(O)c(O)c1)C(=O)O` [levodopa], the “plasma half-life of levodopa” value ([2]; oral levodopa combined with carbidopa) is given as 1.5 h, the “half-life of oral levodopa” value ([2]; when administered with DDCIs) is given as 1 to 1.5 h and the “extent of brain penetration of levodopa” value ([2]; when combined with a DDCI) is given as 10%.

In the case of `Cc1ccc(C(=O)c2cc(O)c(O)c([N+](=O)[O-])c2)cc1` [tolcapone], the “reduction in UPDRS Part II activities of daily living (ADL) score” value [3, 4] is listed as −1.4 points, the “reduction in UPDRS motor score” value [3, 4] is listed as −2.0 points and the “reduction in UPDRS Part II activities of daily living (ADL) score” value [3, 5] is listed as −1.6 points. The “reduction in UPDRS motor score” value [3, 5] was −2.3 points.
